{"source": "patent US9486467B2", "about": "“Method of treating colorectal cancer that expresses a mutated APC gene by administering erythromycin or tylosin” (RAMOT AT TEL-AVIV UNIVERSITY LTD., priority 2006, dated 2016)", "key": {"[1]": {"system": "APC hotspot stop codon mutations", "experiment": "Dual luciferase reporter plasmid system for APC stop codon readthrough", "format": "cell-based", "conditions": "HCT116 colorectal cancer cells; APC hotspots 1061, 1554, 1450; tylosin 4-80 μg/ml", "method": "HCT116 CRC cells (control cells carrying a wild-type APC) were cultured in Dulbecco's modified Eagle's medium (DMEM) supplemented with 10% fetal calf serum (FCS) and 100 units/ml penicillin or streptomycin. Cells were kept in a humidified, 5% CO2 atmosphere at 37° C. Cells were transfected using JetPEI (PolyPlus Transfection). The cells were transfected with 0.5 μg of the described construct, and 48 hours later, the levels of luciferase were measured with the Luciferase assay kit (Promega, USA), according to the manufacturer's instructions.\nA dual luciferase reporter plasmid system was used to measure the effect of tylosin on readthrough of APC hotspot stop codon mutations in colorectal tissue culture cells. In this system, the Renilla luciferase reporter gene is located upstream of the hotspot, and the firefly luciferase reporter gene is located downstream of the hotspot in the APC wild-type or mutated sequences, and both genes are under the transcriptional control of the APC promoter (FIG. 2a). The Renilla luciferase gene serves as an internal normalization control for transfection efficiency, mRNA abundance and the levels of translation initiation, since translation of both enzymes originates from the same translation initiation signal. Following normalization, the differences in firefly luciferase activities reflect the frequency of stop codon readthrough. Constructs containing either wild-type or the APC mutated sequence at the APC hotspot codons 1061 or 1554 were transfected into HCT116 colorectal cancer cells grown in the presence of varying amounts of antibiotics of the macrolide family."}, "β-catenin/Tcf signaling": {"system": "β-catenin/Tcf signaling", "experiment": "pTOPFLASH luciferase reporter of β-catenin/Tcf-mediated transcription", "format": "cell-based", "conditions": "CX-1 CRC cells (stop mutation in APC hotspot 1554); 8 μg/ml tylosin; 48 h after transfection", "method": "Cells were maintained as described above. Cells were transfected with 0.5 μg of pTOPFLASH and 0.05 μg Renilla (Promega, USA). Forty-eight hours later, the levels of luciferase were measured by using the Luciferase assay kit (Promega, USA).\nColorectal cell lines show high levels of β-catenin/Tcf-mediated transcription due to mutations that lead to over-activation of the Wnt signaling pathway. To measure the effect of tylosin on levels of β-catenin/Tcf-mediated transcription, CX-1 CRC cells containing a stop mutation in APC hotspot 1554 were transfected with pTOPFLASH, a luciferase reporter plasmid that is widely used for measuring transcriptional activity of Tcf and β-catenin (pTOPFLASH contains multimerized Tcf-binding sites linked to a luciferase reporter)."}, "HT-29 CRC cells [2]": {"system": "HT-29 CRC cells", "experiment": "HT-29 CRC cell tumorigenicity in nude mice, tylosin in drinking water", "format": "in vivo", "conditions": "0.4 μg/ml tylosin in the drinking water", "method": "Six female Nude mice (SCID) were injected with 1×10^7 HT-29 cells. For fourteen days treated groups were fed a normal mouse diet and received drinking water containing 0.4 mg/ml of tylosin. The control group received regular drinking water. Following fourteen days, the mice were sacrificed and the tumors were removed and weighed.\nTruncation of APC correlates with tumor formation (15). The present inventor predicted that restoration of functional, full-length APC protein in a cell line containing only truncated APC would lead to a decrease in tumorigenesis. 1×10^7 HT-29 CRC cells containing a hotspot mutation at codon 1554 of APC were injected into twelve nude SCID mice. The treated mice group (six mice) received 0.4 μg/ml tylosin in the drinking water. […] Following fourteen days of receiving drinking water with or without tylosin, the mice were sacrificed and the tumor was removed. The tumors were weighed and the tumor mass of the tylosin-treated mice was, on average, approximately 40% lower than that of the control group (FIG. 4b)."}, "APC": {"system": "APC", "experiment": "Anti-APC immunoblot of tumor lysates from treated mice", "format": "in vivo", "conditions": "tumors of mice treated with 0.8 mg/ml, 0.4 mg/ml tylosin versus NT, HCT116 wild-type APC as size marker", "method": "Tumors from control and treated mice were lysed, run on an SDS-PAGE gel, and transferred to a nitrocellulose membrane. The membrane was incubated with an anti-APC antibody (oncogene APC AB-2)."}, "HT-29 CRC cells [3]": {"system": "HT-29 CRC cells", "experiment": "H&E histology of tumors from control and tylosin-treated mice", "format": "in vivo", "conditions": "tumor sections of tylosin-treated mice versus control", "text": "Tumor sections from control and treated mice were stained with H&E stain. The slides were examined by a professional pathologist.\nTumor sections from control and tylosin-treated mice were stained with Hematoxylin and Eosin (H&E) stain, a stain used routinely for tissue sections, and were examined by a professional pathologist."}}, "note": "Entries after “also recorded” stand apart in the source; their conditions may differ."}
{"compound": "CC[C@H]1OC(=O)[C@H](C)[C@@H](O[C@H]2C[C@@](C)(OC)[C@@H](O)[C@H](C)O2)[C@H](C)[C@@H](O[C@@H]2O[C@H](C)C[C@H](N(C)C)[C@H]2O)[C@](C)(O)C[C@@H](C)C(=O)[C@H](C)[C@@H](O)[C@]1(C)O", "note": "[erythromycin, Erythromycin]", "values": [{"measurement": "APC stop codon readthrough (firefly luciferase normalized to Renilla)", "setting": "[1]", "value": "more moderate levels of stop codon readthrough"}]}
{"compound": "Spiramycin", "values": [{"measurement": "APC stop codon readthrough (firefly luciferase normalized to Renilla)", "setting": "[1]", "value": "more moderate levels of stop codon readthrough"}]}
{"compound": "CC[C@H]1OC(=O)C[C@@H](O)[C@H](C)[C@@H](O[C@@H]2O[C@H](C)[C@@H](O[C@H]3C[C@@](C)(O)[C@@H](O)[C@H](C)O3)[C@H](N(C)C)[C@H]2O)[C@@H](CC=O)C[C@@H](C)C(=O)/C=C/C(C)=C/[C@@H]1CO[C@@H]1O[C@H](C)[C@@H](O)[C@@H](OC)[C@H]1OC", "note": "[tylosin]", "values": [{"measurement": "reduction in β-catenin/Tcf/LEF transcriptional signaling", "setting": "β-catenin/Tcf signaling", "value": "approximately 50%"}, {"measurement": "tumor size versus control mice", "setting": "HT-29 CRC cells [2]; nude SCID mice injected with 1×10^7 HT-29 cells, FIG. 4: ten days post-injection", "value": "reduced tumor size compared with the control mice; also recorded: smaller compared to that of the control group"}, {"measurement": "tumor mass lower than that of the control group, on average", "setting": "HT-29 CRC cells [2]; nude SCID mice, HT-29 cells, fourteen days", "value": "approximately 40%"}, {"measurement": "expression of full-length APC in tumors (anti-APC antibodies)", "setting": "APC", "value": "a higher amount of tylosin increased the expression of the full-length protein accordingly"}, {"measurement": "expression of full-length APC in tumors (anti-APC antibodies)", "setting": "APC; listed as Tylosin", "value": "expression of full-length APC"}, {"measurement": "blood supply to the tumor (H&E stain)", "setting": "HT-29 CRC cells [3]", "value": "not affected"}, {"measurement": "tumor histology (H&E stain)", "setting": "HT-29 CRC cells [3]", "value": "necrosis and death of tumor cells"}, {"measurement": "APC stop codon readthrough (firefly luciferase normalized to Renilla)", "setting": "[1]", "value": "significant levels of APC stop codon readthrough; also recorded: higher levels of readthrough compared to erythromycin, spiramycin, and gentamycin"}]}
{"compound": "gentamycin", "values": [{"measurement": "APC stop codon readthrough (firefly luciferase normalized to Renilla)", "setting": "[1]", "value": "more moderate levels of stop codon readthrough"}]}
